The record followed here is patent US20200239587A1, “SENSITIZATION OF TUMORS TO THERAPIES THROUGH ENDOGLIN ANTAGONISM” (Cedars-Sinai Medical Center, priority 2016, published 2020).

The test system of test [1] is CD105 cell surface expression in human CW22Rv1 epithelia and mouse prostatic fibroblasts. Description: 3D co-culture, CD105 cell surface expression by FACS. It is filed as cell-based. The following applies: enzalutamide vs vehicle; epithelial and fibroblastic populations. As to the method: After 72 hours, the cells were dissociated and assessed by FACS for CD105 expression as shown.
A modified version of the 3D organotypic co-culture system was performed in a collagen matrix similar to that previously reported (Stark et al., 1999, J Invest Dermatol 112, 681-691). Collagen matrix gels were prepared by mixing five volumes of rat tail collagen I with two volumes of matrigel (NCI), one volume of 10× DMEM medium (GE Healthcare Life Sciences), and one volume of FBS (Atlanta Biologicals), Rv1 and primary mouse prostatic fibroblasts were combined in a 1:3 ratio. Nylon squares were coated with collagen and placed on metal grids in a 6-well plate. Gel plugs (150 μl) were transferred onto the nylon squares and media was added to the level of the nylon mesh. After 72 hours, the cells were dissociated from the matrix with collagenase and dispersed for FACS analysis.
FACS experiments were performed with eBiosciences antibodies: anti-human Stro-1-FITC (340105), anti-human CD90-PE (12-0909-42), anti-human CD105-APC (17-1057-41), anti-mouse CD105-APC (17-1051-82), anti-human CD117-PE-Cy7 (15-1178-41), anti-human Ki67-PECy7 (25-5699-41), and anti-human EpCAM-PE (12-9326-41). All events were acquired on a BD LSRII flow cytometer in the Cedars-Sinai Medical Center FACS core installed with BD FACSDiva software. Files were analyzed using FlowJo software v10.2. […]

For test [2], the system named is PCa patient-derived xenograft (PDX). Description: PCa patient-derived xenograft (PDX), immune-localization of CD105 and SFRP1. The format is in vivo, mice. An excerpt:
See also FIG. 15. […] Scale bar represents 100 μm. […] See also FIG. 16.
A general note: Xenograft models place foreign cells or tissue in a host animal.

For the next test, the system named is C42B. Put plainly: MTT proliferation assay. The format is cell-based, human. Conditions: enzalutamide alone, absence of fibroblastic cells; p<0.0001. How it is done: (§1) CW22Rv1, C42B, and PC3 cells from ATCC were expanded as directed. Prostatectomy specimens from Cedars-Sinai Medical Center or the Greater Los Angeles Veterans Affairs were cultured to generate NAF and CAF cells using the same method, as C57BL/6 mouse wild-type prostatic fibroblasts were grown as previously reported (Franco et al., 2011, Cancer research 71, 1272-1281; Kiskowski et al., 2011, Cancer research 68, 4709-4718). TRC105 and M1043 were provided by TRACON Pharmaceuticals, Inc. (San Diego, Calif.). Enzalutamide (Xtandi) was purchased from Medivation (San Francisco, Calif.).
(§2) 3000 cells per 96-well were treated for 72 hours using 5 wells per treatment. MTT reagent (M6494, Life Technologies) was prepared as directed, incubated for one hour at 37° C., and analyzed using manufacturer's recommendations.
For orientation: Formazan colour is commonly taken as a measure of viable cells.

The next test concerns PC3 cells. Description: MTT proliferation assay. It is filed as cell-based, human. Conditions: enzalutamide, absence of TRC105; no androgen receptor expression. How it is done: as §1, §2
A further test relates to Rv1. Description: MTT proliferation assay. It is filed as cell-based, human. Conditions: enzalutamide alone, absence of fibroblastic cells; p<0.0001. As to the method: as §1, §2
In test [3] the test system is tissue recombination orthotopic xenografts of primary human CAF and Rv1. Description: Tissue recombination orthotopic xenografts of primary human CAF and Rv1. Conditions: castrated mice given enzalutamide vs control intact mice.
Excerpt: FIG. 13A) Mice were orthotopically grafted with tissue recombinants of CW22Rv1 and CAF. […] FIG. 13B) H&E staining was followed by immune-localization for phosphorylated-histoneH3 (PH-H3), TUNEL, and chromogranin A (ChromA). Scale bar represents 32 μm. The mitotic (PH-H3) and cell death (TUNEL) indexes were plotted. n>5, error bars are mean+/−SD and *p<0.05, **p<0.01, ***p<0.001, compared to control unless otherwise indicated.
Male beige/SCID mice (Envigo), 6-8 or 10-12 weeks old, were used for subrenal capsule or prostatic orthotopic grafting, respectively, as previously described (Banerjee et al., 2014, Oncogene 33, 4924-4931; Hayward et al., 2001, Cancer Res 61, 8135-8142). In accordance with institutional animal care and use committee approval, 2×10^5 CW22Rv1 cells and 6×10^5 stromal cells were suspended in 20 μL type I collagen to be grafted into the subrenal capsule of mice castrated after seven days and sacrificed 21 days after castration. […] Tumor volume was calculated using the modified ellipsoid formula volume3=π/6×(width)2×length.
Paraffin embedded tissues were sectioned (5 μm thick) were subjected to hematoxylin and eosin (H&E) staining and immunohistochemistry as previously reported (Placencio et al., 2008, Cancer research 68, 4709-4718). […] Anti-phosphorylated histone H3 (06-570, Millipore), anti-CD105 (NCL-CD105, Leica Microsystems), anti-Ki67 (ab16667, Abcam), and anti-chromogranin A (sc-13090, Santa Cruz Biotechnology), anti-SFRP1 (601-401-475S, Rockland Immunochemicals), and anti-survivin (2808, Cell Signaling) antibodies were incubated at 4° C. overnight. Secondary antibody development was performed with Dako Cytomation mouse or rabbit kits and visualized using 3,3′-diaminobenzidine tetrahydrochloride substrate. TUNEL staining was performed per manufacturer's protocol (S7100, Millipore). Slides were scanned with a Leica Biosystems Aperio AT. Up to five fields per tissue were quantitated with Fiji (ImageJ) using a custom written macro. Mitotic and death index were quantitated by taking the total number of positively-stained nuclei divided by the total number of nuclei.
A further test has as its system p53 in 22Rv1 cells. Put plainly: p53 status after irradiation. The format is cell-based, human. As to the method:
In search for an alternate process mediating TRC105 radiation sensitization the inventors examined changes in cell cycle. The impact of radiation on the cell cycle is well described, as causing a G2 cell cycle arrest that undergoes cell cycle redistribution. […] As SIRT1 has previously been reported to regulate p53 stability by de-acetylating p53, the inventors investigated p53 status with TRC105 treatment. 22Rv1 cells were treated with either TRC105 or 200 μM nicotinamide, an inhibitor of SIRT1 activity, prior to irradiation (4Gy). Cells were then collected at 0, 1, and 7 days post radiation to elucidate early and late p53 response. […] While loss-of-function p53 mutations are rare in prostate cancer, 90% of pancreatic cancers have p53 mutations. We therefore used two p53 mutant pancreatic cancer cell lines: HPAF-II and MIAPACA-2 to identify if TRC105 unresponsiveness to radiation was due to p53 loss of functionality.

Test [4] concerns 22Rv1 cells. Put plainly: Total cellular ATP. It is filed as cell-based, human. The following applies: with or without 4 Gy, 0-168 hours. As to the method:
Cells were analyzed for mito-stress test by Seahorse-XF 168 hours following 4 Gy of radiation in the presence of IgG or TRC105. FIG. 26A) Basal respiration, non-mito respiration, proton leak, spare respiratory capacity, FIG. 26B) extracellular acidification rate (ECAR) and FIG. 26C) mitochondrial dependent ATP production were quantitated using Wave 2.3.0 analysis. Data are reported as mean+/−S.D. of a representative experiment (n=5) of 3 independent experiments. FIGS. 26A-26C, the first/left column depicts 0Gy+IgG, the second column depicts 0Gy+TRC105, the third column depicts 4Gy+IgG and the last/right column depicts 4Gy+TRC105. FIG. 26D) 22Rv1 cells treated with IgG, TRC105 or nicotinamide were irradiated (4 Gy). Total cellular ATP was measured 0, 24, 72, 120, and 168 hours post radiation. Within each group, the left column is IgG, middle column is TRC105 and the right column is nicotinamide. Data are reported as mean+/−S.D. of 3 independent experiments. (***p<0.001, ****p<0.0001).

The subject of test [5] is 22Rv1 cells. Put plainly: Cell counts with oligomycin and irradiation. The format is cell-based, human. The following applies: irrespective of dose of oligomycin, 72 hrs; p<0.01. How it is done: 22Rv1 cells were treated with indicated doses of ATPase inhibitor, oligomycin and exposed to 4Gy irradiation. Within each group, the left column is 0 Gy and the right column is 4 Gy. Cell counts were performed 72 hrs. following irradiation. (**p<0.01, ***p<0.001)

For test [6], the system named is SIRT1 protein expression in 22Rv1. Description: Western blot for SIRT1 after BMP treatment. It is filed as cell-based, human. The following applies: serum-starved, 50 ng/ml BMP4 for 4 hours. How it is done:
FIG. 20A) Western blot for SIRT1 expression measured in 22Rv1 cells following serum starvation and treatment with 50 ng/ml BMP4 for 4 hours. Phosphorylated Smad1/5 and β-actin was measured concurrently. FIG. 20B) SIRT1 mRNA expression was measured in CW22Rv1 under serum free conditions with 50 ng/ml BMP4, IgG in the context of increasing doses of TRC105 (0.05, 0.1, 0.5, 1, 5, or 10 μg/ml). SIRT1 mRNA expression was normalized to GAPDH and to serum treated control. FIG. 20C) Fold Change of SIRT1 mRNA in benign prostate and prostate cancer patients, obtained from R2-Genomics analysis is expressed (n=95). FIG. 20D) Immunohistochemical localization for SIRT1 expression in benign and prostate cancer tissues is indicated by arrows (Human Protein Atlas). The “e” and “s” indicate epithelia and stromal compartments in the tissues, respectively. FIG. 20E) SIRT1 mRNA expression was measured 72 hours following irradiation of 22Rv1 in a dose range of 0-6 Gy. FIG. 20F) SIRT1 mRNA expression was measured in a time course 0-72 hours following 4 Gy irradiation. SIRT1 mRNA expression was normalized to GAPDH and to untreated, 0 Gy. Data are reported as a mean+/−S.D. of 3 independent experiments (***p<0.001, ****p<0.0001).

Test [7] concerns Rv1 cells. Put plainly: Neuroendocrine gene panel in Rv1 treated with recombinant SFRP1. The format is cell-based, human. Conditions: 0, 0.01, 0.1, 1 μg/ml SFRP1; p<0.002. An excerpt:
See also FIG. 15. […] Immunohistochemical localization of CD105 and SFRP1 in benign or PCa tissues are found in blood vessels (v), epithelia (e), and stroma (s), n=4. Scale bar represents 100 μm. FIG. 12E) Epithelial proliferation of human CW22Rv1, in 3D co-cultures with mouse prostatic fibroblasts, were co-stained for EpCam and Ki67 for FACS analysis. […] See also FIG. 16. […] Error bars are mean+/−SD and **p<0.01, ****p<0.0001, compared to control unless otherwise indicated.
Total RNA was extracted using the RNeasy kit (Qiagen). 1 μg RNA was used for cDNA synthesis using iSCRIPT cDNA synthesis kit (1708891, Bio-Rad). Quantitative RT-PCR was performed with 5 replicates using the Step One Real-Time PCR system (Applied Biosystems). Gene mRNA expression was normalized to GAPDH. Primer sequences can be found in the Table 1. For RNA-sequencing, Ion Proton AmpliSeq Transcriptome RNA Sequencing was performed achieving an average of 3M reads. We mapped an average of 88% of the reads to the human genome with Torrent Suite version 4.4.2.

For test [8], the system named is Rv1 cells. Description: Rv1 proliferation with recombinant SFRP1. Conditions: same doses of SFRP1, 72 hours. It is filed as cell-based, human. An excerpt:
Associations between copy number (CN), gene expression (GE), and methylation (Me) are denoted by lines from one node to another (p<0.01).

Entries after “also recorded” stand apart in the source; their conditions may differ.

Turning to `CNC(=O)c1ccc(N2C(=S)N(c3ccc(C#N)c(C(F)(F)F)c3)C(=O)C2(C)C)cc1F` [enzalutamide, reference compound], in test [1], the “CD105 cell surface expression” value is recorded as “three-fold increase”. In addition, in test [2] (enzalutamide treatment), the “SFRP1 expression in PDX” value is “upregulated”. Also, the “CD105 expression in PDX tissues” value in test [2] (following 4 days of enzalutamide administration) is “elevated in both epithelial and CAF populations”. Besides, the “cell proliferation (MTT)” value in the test with C42B was “significantly reduced cell proliferation”. Moreover, in the test on PC3 cells, the “viability (MTT)” value is listed as “insensitive”. Moreover, in the test with Rv1, the “cell proliferation (MTT)” value was “significantly reduced cell proliferation; also recorded: sensitive to enzalutamide treatment”. In addition, in [3], the “cell turnover by phosphorylated-histone H3 and TUNEL” value is “statistically comparable to control intact mice”; the tumor volume result is recorded as “statistically comparable to control intact mice; also recorded: did not significantly decrease tumor growth”.
With `NC(=O)c1cccnc1` [nicotinamide, reference compound], the “acetylated and total-p53” value in the test with p53 in 22Rv1 cells (by 7 days post radiation) is on record as “markedly increased”. In the test with p53 in 22Rv1 cells (prior to 4Gy irradiation), the “anti-apoptotic protein Bc1-2” value is listed as “decrease in the anti-apoptotic protein Bc1-2” and the p21 entry is “increase in p21”. In addition, the “acetylated p53” value in the test on p53 in 22Rv1 cells (treatment prior to 4Gy, nicotinamide 200 μM) was “increase in acetylated p53”. Further, in the test with 22Rv1 cells [4], the “cellular ATP stores” value is reported as “depleted regardless of radiation treatment”.
On to `CC[C@H]1/C=C/C=C/C[C@@H](C)[C@H](O)[C@@](C)(O)C(=O)[C@@H](C)[C@H](O)[C@@H](C)C(=O)[C@@H](C)[C@H](O)[C@@H](C)/C=C/C(=O)O[C@@H]2[C@H](C)[C@H](CC1)O[C@]1(CC[C@H](C)[C@H](C[C@@H](C)O)O1)[C@H]2C` [oligomycin], for which the “cell proliferation by cell counting” value in the test with 22Rv1 cells [5] is given as “significantly reduced cell proliferation”.

B1: BMP: bone morphogenic protein (BMP4, 50 ng/ml) used to stimulate 22Rv1 cells (protein, UniProt P12644 293-408, looked up)
Bone morphogenetic protein 4: SPKHHSQRARKKNKNCRRHSLYVDFSDVGWNDWIVAPPGYQAFYCHGDCPFPLADHLNSTNHAIVQTLVNSVNSSIPKACCVPTELSAISMLYLDEYDKVVLKNYQEMVVEGCGCR
For B1, in test [6], the SIRT1 protein expression entry is “induced SIRT1 protein expression”.

B2: SFRP1: human recombinant SFRP1 (Secreted Frizzled Related Protein 1) (protein, UniProt Q8N474 32-314, looked up)
Secreted frizzled-related …: SEYDYVSFQSDIGPYQSGRFYTKPPQCVDIPADLRLCHNVGYKKMVLPNLLEHETMAEVKQQASSWVPLLNKNCHAGTQVFLCSLFAPVCLDRPIYPCRWLCEAVRDSCEPVMQFFGFYWPEMLKCDKFPEGDVCIAMTPPNATEASKPQGTTVCPPCDNELKSEAIIEHLCASEFALRMKIKEVKKENGDKKIVPKKKKPLKLGPIKKKDLKKLVLYLKNGADCPCHQLDNLSHHFLIMGRKVKSQYLLTAIHKWDKKNKEFKNFMKKMKNHECPTFQSVFK
In the case of B2, the “expression of panel of 9 PCa NED genes” value in the test on Rv1 cells [7] was “significant induction of a panel of 9 PCa NED genes in a dose dependent manner”. In the test with Rv1 cells [8], the epithelial proliferation result is given as “no effect”.
